Data as given in patent US7563623B2, “Biosensor” (FUJIFILM Corporation, priority 2006, dated 2009).
Like-named read-outs stand apart in the source and are kept apart here.

Assay: Solubility of SAM compounds in water, visual observation after standing at 25° C. for one day
Type: physicochemical
Settings: for water solubility (summary in words): conclusion from Table 1; for solubility at 1 day: water, 25 °C, thermodynamic from solid, 25° C., one day, visual observation, read-out: Solubility (solvent (H2O) allowed to stand at 25° C. for one day)
Experimental: The mixtures were allowed to stand at 25° C. for one day, followed by observation. […] The symbol “x” indicates a resultant in which precipitation and sedimentation were observed, the symbol “Δ” indicates a resultant in which opacity was observed, and the symbol “◯” indicates a resultant having an achromatic and transparent color. • 16-Hydroxy-1-hexadecanethiol (Frontier Scientific) • 11-Hydroxy-1-undecanethiol (Aldrich) • 8-Hydroxy-1-octanethiol (Aldrich) • 6-Hydroxy-1-hexanethiol (Aldrich) • 11-Amino-1-undecanethiol, hydrochloride (Dojindo Laboratories) • 8-Amino-1-octanethiol, hydrochloride (Dojindo Laboratories) • 6-Amino-1-hexanethiol, hydrochloride (Dojindo Laboratories)

Row | water solubility (summary in words) | solubility at 1 day (SAM concentration 0.1 mM) | solubility at 1 day (SAM concentration 1 mM) | solubility at 1 day (SAM concentration 5 mM) | solubility at 1 day (SAM concentration 20 mM) | SMILES
1 | good water solubility | > 0.1 mM | > 1 mM | > 5 mM | > 20 mM | Cl.NCCCCCCS [6-Amino-1-hexanethiol, hydrochloride]
2 | good water solubility | > 0.1 mM | > 1 mM | > 5 mM | < 20 mM | OCCCCCCS [6-Hydroxy-1-hexanethiol]
3 | good water solubility | > 0.1 mM | > 1 mM | > 5 mM | > 20 mM | Cl.NCCCCCCCCS [8-Amino-1-octanethiol, hydrochloride]
4 | good water solubility | > 0.1 mM | > 1 mM | < 5 mM | < 20 mM | OCCCCCCCCS [8-Hydroxy-1-octanethiol]
5 |  |  | < 1 mM | < 5 mM | < 20 mM | Cl.NCCCCCCCCCCCS [11-Amino-1-undecanethiol, hydrochloride]
6 |  | < 0.1 mM | < 1 mM | < 5 mM | < 20 mM | OCCCCCCCCCCCS [11-Hydroxy-1-undecanethiol]
7 |  | < 0.1 mM | < 1 mM | < 5 mM | < 20 mM | OCCCCCCCCCCCCCCCCS [16-Hydroxy-1-hexadecanethiol]
